# Source: paper PMC6627486, “Ipomoeassin F Binds Sec61α to Inhibit Protein Translocation” (Journal of the American Chemical Society, 2019)
# Read-outs that look alike come from different tables or passages of the source.
# Tests used:
# [1] = test system: WT HCT116; test: Alamar Blue viability, parental HCT116 (96 h); assay type: cell-based, human; conditions: read-out: cell viability IC50
# Experimental: (§1) AlamarBlue Cytotoxicity Assay
# (§2) MDA-MB-231, MCF-10A and HCT116. Viable cells were counted with a hemocytometer immediately before each experiment . Experiments were done in triplicate. First, 100 μL of MDA-MB-231 cells or MCF-10A cells at the density of 50,000 cells/mL was seeded in a 96-well plate (5,000 cells/well) and then incubated at 37 °C and 5% CO2 for 24 h. The compounds were dissolved in DMSO (dimethyl sulfoxide) to make drug stocks (10 mM). The stock solutions were diluted with the complete DMEM high glucose culture medium to make a series of gradient fresh working solutions right before each test. Subsequently, the cells were treated with 100 μL of the freshly made gradient working solution in a total volume of 200 μL/well for 72 h. After that, the media were discarded and 200 μL of the fresh complete medium containing 10% of AlamarBlue (resazurin) stock solution was added to each well. The plate was then incubated at 37 °C and 5% CO2 for another 3 h. Emission of each well at 620 nm was detected by a microplate reader (BioTek Synergy H1) at excitation 580 nm. For HCT116 WT and mutant lines, cells were seeded at 1000 cells/ well in complete McCoys medium. […] Cells were treated for 96 h, then viability measured with AlamarBlue, detected using the conditions described but with a BMG Fluostar Optima Microplate Reader. […]
# (§3) was determined. […]
# [2] = test system: TNF production by RAW264.7 cells; test: TNF production washout assay in LPS-stimulated RAW264.7 cells; assay type: cell-based; conditions: 250 nM ipomoeassin F, 125 ng/mL mycolactone; for TNF production after 24 h washout: 1 h incubation, washed, 24 h recovery, then LPS 4 h; for TNF production, direct assay: 1 h preincubation, then 100 ng/mL LPS 4 h
# Experimental: The reversibility of the inhibition of secreted protein production by ipomoeassin F was determined by following the production of TNF in RAW264.7 cells as described before.22 Briefly, RAW264.7 cells were maintained at 37 °C and 5% CO2 in high glucose DMEM (Merck), supplemented with 10% heat-inactivated FBS (GIBCO). Cells were plated into 24 well plates at a concentration of 1 x 10^5/ml 24 hour prior to assay, then incubated for 1 hour in the presence or absence of 125 ng/ml mycolactone, 250 nM Ipomoeassin F or DMSO carrier. Cells were either stimulated directly with 100 ng/ml TLR-grade LPS (Enzo) or washed 3 times with medium and incubated 24 hour, then stimulated with LPS. In each case, cells were incubated with LPS for 4 hour then the supernatants were removed. The concentration of TNF in supernatants was quantified by ELISA (eBioscience).
# [3] = test system: HCT R66K; test: Alamar Blue viability, HCT116 Sec61α R66K (96 h); assay type: cell-based, human
# Experimental: as §1, §2, §3
# [4] = AlamarBlue cytotoxicity assay, MCF-10A; assay type: cell-based, human; conditions: human
# Experimental: as §1
# MDA-MB-231, MCF-10A and HCT116. Viable cells were counted with a hemocytometer immediately before each experiment . Experiments were done in triplicate. First, 100 μL of MDA-MB-231 cells or MCF-10A cells at the density of 50,000 cells/mL was seeded in a 96-well plate (5,000 cells/well) and then incubated at 37 °C and 5% CO2 for 24 h. The compounds were dissolved in DMSO (dimethyl sulfoxide) to make drug stocks (10 mM). The stock solutions were diluted with the complete DMEM high glucose culture medium to make a series of gradient fresh working solutions right before each test. Subsequently, the cells were treated with 100 μL of the freshly made gradient working solution in a total volume of 200 μL/well for 72 h. After that, the media were discarded and 200 μL of the fresh complete medium containing 10% of AlamarBlue (resazurin) stock solution was added to each well. The plate was then incubated at 37 °C and 5% CO2 for another 3 h. Emission of each well at 620 nm was detected by a microplate reader (BioTek Synergy H1) at excitation 580 nm. […]
# Microplate Reader. The percentage of viability compared to the negative control (DMSO-treated cells) […]
# as §3
SMILES,"IC50 ([1]; WT HCT116, 96 h)",TNF production after 24 h washout [2],"TNF production, direct assay [2]",IC50 ([3]; read-out: cell viability IC50),IC50 ([4]; 72 h),"IC50 ([1]; Homo sapiens, HCT-116, WT HCT116, 96 h)",IC50 at 72 h [4],"IC50 ([3]; Homo sapiens, HCT-116, read-out: cell viability IC50)"
"CC(=C\C=C\C(C)=C\[C@H](O)[C@@H](O)C[C@H](C)O)/C=C(C)/C=C/C(=O)O[C@H]1CCCC(=O)O[C@@H]([C@@H](C)C/C(C)=C/[C@@H](C)[C@H](O)C[C@@H](C)O)C/C=C(\C)C[C@@H]1C [mycolactone, reference compound]",0.0019 ± 0.0006 µM,not to be restored,completely block TNF production,> 0.33 µM,,,,
C/C=C(\C)C(=O)O[C@H]1[C@H](OC(=O)/C=C/c2ccc(OCc3cn(CCOCCOCCOCCNC(=O)CCCC[C@@H]4SC[C@@H]5NC(=O)N[C@@H]54)nn3)cc2)[C@@H](O)[C@@H]2O[C@H]3[C@H](O[C@@H](CCCCC)CCCCCCC(=O)CCC(=O)OC[C@H]1O2)O[C@H](C)[C@H](OC(C)=O)[C@@H]3O [compound 5],,,,,0.0217 µM,,,
C/C=C(\C)C(=O)O[C@@H]1[C@@H](O)[C@@H]2O[C@H]3[C@H](O[C@@H](CCCCC)CCCCCCC(=O)CCC(=O)OC[C@@H](O2)[C@H]1OC(=O)/C=C/c1ccccc1)O[C@H](C)[C@H](OC(C)=O)[C@@H]3O [ipomoeassin F],,"restored, albeit at a reduced level",similarly blocked TNF production,,,0.04 ± 0.004 µM,0.0053 µM,0.131 ± 0.015 µM
